# Measurements taken from patent US9149038B2, “4-amino-6-(heterocyclic)picolinates and 6-amino-2-(heterocyclic)pyrimidine-4-carboxylates and their use as herbicides” (Dow AgroSciences LLC, priority 2013, dated 2015).
# Read-outs that look alike come from different tables or passages of the source.
# Test system: Direct Seeded Rice and weed species
# Assay: Postemergence herbicidal activity in direct seeded rice, visual rating after 20-22 days and probit GR20/GR50/GR80/GR90 (Table 14)
# Format: in vivo
# Conditions: for pest or weed control at 17.5 g/ha / pest or weed control at 35 g/ha / pest or weed control at 70 g/ha: post-emergence, 504 h, postemergence; for pest or weed control at 17.5 g/ha: 17.5 g ai/ha; for pest or weed control at 35 g/ha: 35 g ai/ha; for pest or weed control at 70 g/ha: 70 g ai/ha
# In short: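 Rice and weeds grown in loam–sand soil (pH about 8.1) in greenhouse to 2nd–3rd true leaf, then sprayed postemergence at 187 L/ha in acetone/DMSO with 1.25% (v/v) Agri-dex crop oil. Injury rated visually 0–100 after 20-22 days versus untreated plants; GR20, GR50, GR80, GR90 obtained by probit analysis across dose rates.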
# [1] = BRAPP (broadleaf signalgrass, Brachiaria platyphylla), read-out: Visual Growth Reduction (%) 21 Days After Application BRAPP
# [2] = CYPDI (small-flower flatsedge, Cyperus difformis), read-out: Visual Growth Reduction (%) 21 Days After Application CYPDI
# [3] = CYPES (yellow nutsedge, Cyperus esculentus), read-out: Visual Growth Reduction (%) 21 Days After Application CYPES
# [4] = CYPIR (rice flatsedge, Cyperus iria), read-out: Visual Growth Reduction (%) 21 Days After Application CYPIR
# [5] = DIGSA (large crabgrass, Digitaria sanguinalis), read-out: Visual Growth Reduction (%) 21 Days After Application DIGSA
# [6] = ECHCG (barnyardgrass, Echinochloa crus-galli), read-out: Visual Growth Reduction (%) 21 Days After Application ECHCG
# [7] = ECHCO (junglerice, Echinochloa colonum), read-out: Visual Growth Reduction (%) 21 Days After Application ECHCO
# [8] = LEFCH (Chinese sprangletop, Leptochloa chinensis), read-out: Visual Growth Reduction (%) 21 Days After Application LEFCH
# [9] = ORYSJ (Oryza sativa, rice crop), read-out: Visual Growth Reduction (%) 21 Days After Application ORYSJ
# [10] = ORYSK (Oryza sativa, rice crop), read-out: Visual Growth Reduction (%) 21 Days After Application ORYSK
# [11] = SCPJU (Japanese bulrush, Schoenoplectus juncoides Roxb.), read-out: Visual Growth Reduction (%) 21 Days After Application SCPJU
# [12] = SEBEX (hemp sesbania, Sesbania exaltata), read-out: Visual Growth Reduction (%) 21 Days After Application SEBEX
structure (smiles),measurement,setting,value
"COC(=O)c1nc(-c2ccc3c(c2F)OC(F)(F)O3)cc(N)c1Cl [Compound 37, Methyl 4-amino-3-chloro-6-(2,2,4-trifluorobenzo-[d][1,3]dioxol-5-yl)picolinate]",GR50 BRAPP,"BRAPP (Brachiaria platyphylla), probit analysis, dose for 50 percent growth reduction",3 g ai/ha
same,GR80 BRAPP,"BRAPP (Brachiaria platyphylla), probit analysis, dose for 80 percent growth reduction",15 g ai/ha
same,GR90 BRAPP,"BRAPP (Brachiaria platyphylla), probit analysis, dose for 90 percent growth reduction",39 g ai/ha
same,GR50 CYPDI,"CYPDI (Cyperus difformis), probit analysis, dose for 50 percent growth reduction",0.04 g ai/ha
same,GR80 CYPDI,"CYPDI (Cyperus difformis), probit analysis, dose for 80 percent growth reduction",1 g ai/ha
same,GR90 CYPDI,"CYPDI (Cyperus difformis), probit analysis, dose for 90 percent growth reduction",2 g ai/ha
same,GR50 CYPES,"CYPES (Cyperus esculentus), probit analysis, dose for 50 percent growth reduction",<18 g ai/ha
same,GR80 CYPES,"CYPES (Cyperus esculentus), probit analysis, dose for 80 percent growth reduction",<18 g ai/ha
same,GR90 CYPES,"CYPES (Cyperus esculentus), probit analysis, dose for 90 percent growth reduction",<18 g ai/ha
same,GR50 CYPIR,"CYPIR (Cyperus iria), probit analysis, dose for 50 percent growth reduction",6 g ai/ha
same,GR80 CYPIR,"CYPIR (Cyperus iria), probit analysis, dose for 80 percent growth reduction",23 g ai/ha
same,GR90 CYPIR,"CYPIR (Cyperus iria), probit analysis, dose for 90 percent growth reduction",46 g ai/ha
same,GR50 DIGSA,"DIGSA (Digitaria sanguinalis), probit analysis, dose for 50 percent growth reduction",0.07 g ai/ha
same,GR80 DIGSA,"DIGSA (Digitaria sanguinalis), probit analysis, dose for 80 percent growth reduction",2 g ai/ha
same,GR90 DIGSA,"DIGSA (Digitaria sanguinalis), probit analysis, dose for 90 percent growth reduction",8 g ai/ha
same,GR50 ECHCG,"ECHCG (Echinochloa crus-galli), probit analysis, dose for 50 percent growth reduction",0.33 g ai/ha
same,GR80 ECHCG,"ECHCG (Echinochloa crus-galli), probit analysis, dose for 80 percent growth reduction",4 g ai/ha
same,GR90 ECHCG,"ECHCG (Echinochloa crus-galli), probit analysis, dose for 90 percent growth reduction",17 g ai/ha
same,GR50 ECHCO,"ECHCO (Echinochloa colonum), probit analysis, dose for 50 percent growth reduction",0.001 g ai/ha
same,GR80 ECHCO,"ECHCO (Echinochloa colonum), probit analysis, dose for 80 percent growth reduction",0.2 g ai/ha
same,GR90 ECHCO,"ECHCO (Echinochloa colonum), probit analysis, dose for 90 percent growth reduction",3 g ai/ha
same,GR50 LEFCH,"LEFCH (Leptochloa chinensis), probit analysis, dose for 50 percent growth reduction",116 g ai/ha
same,GR80 LEFCH,"LEFCH (Leptochloa chinensis), probit analysis, dose for 80 percent growth reduction",288 g ai/ha
same,GR90 LEFCH,"LEFCH (Leptochloa chinensis), probit analysis, dose for 90 percent growth reduction",464 g ai/ha
same,GR20 ORYSJ,"ORYSJ (Oryza sativa, rice crop), probit analysis, dose for 20 percent growth reduction",56 g ai/ha
same,GR20 ORYSK,"ORYSK (Oryza sativa, rice crop), probit analysis, dose for 20 percent growth reduction",70 g ai/ha
same,GR50 SCPJU,"SCPJU (Schoenoplectus juncoides Roxb.), probit analysis, dose for 50 percent growth reduction",0.0001 g ai/ha
same,GR80 SCPJU,"SCPJU (Schoenoplectus juncoides Roxb.), probit analysis, dose for 80 percent growth reduction",0.0001 g ai/ha
same,GR90 SCPJU,"SCPJU (Schoenoplectus juncoides Roxb.), probit analysis, dose for 90 percent growth reduction",0.0001 g ai/ha
same,GR50 SEBEX,"SEBEX (Sesbania exaltata), probit analysis, dose for 50 percent growth reduction",2 g ai/ha
same,GR80 SEBEX,"SEBEX (Sesbania exaltata), probit analysis, dose for 80 percent growth reduction",15 g ai/ha
same,GR90 SEBEX,"SEBEX (Sesbania exaltata), probit analysis, dose for 90 percent growth reduction",47 g ai/ha
same,pest or weed control at 17.5 g/ha,[1],60 to 74%
same,pest or weed control at 35 g/ha,[1],85 to 94%
same,pest or weed control at 70 g/ha,[1],95 to 100%
same,pest or weed control at 17.5 g/ha,[2],95 to 100%
same,pest or weed control at 35 g/ha,[2],95 to 100%
same,pest or weed control at 70 g/ha,[2],95 to 100%
same,pest or weed control at 17.5 g/ha,[3],75 to 84%
same,pest or weed control at 35 g/ha,[3],85 to 94%
same,pest or weed control at 70 g/ha,[3],95 to 100%
same,pest or weed control at 17.5 g/ha,[4],85 to 94%
same,pest or weed control at 35 g/ha,[4],45 to 59%
same,pest or weed control at 70 g/ha,[4],95 to 100%
same,pest or weed control at 17.5 g/ha,[5],85 to 94%
same,pest or weed control at 35 g/ha,[5],95 to 100%
same,pest or weed control at 70 g/ha,[5],95 to 100%
same,pest or weed control at 17.5 g/ha,[6],85 to 94%
same,pest or weed control at 35 g/ha,[6],85 to 94%
same,pest or weed control at 70 g/ha,[6],95 to 100%
same,pest or weed control at 17.5 g/ha,[7],85 to 94%
same,pest or weed control at 35 g/ha,[7],95 to 100%
same,pest or weed control at 70 g/ha,[7],95 to 100%
same,pest or weed control at 17.5 g/ha,[8],0 to 29%
same,pest or weed control at 35 g/ha,[8],0 to 29%
same,pest or weed control at 70 g/ha,[8],45 to 59%
same,pest or weed control at 17.5 g/ha,[9],0 to 29%
same,pest or weed control at 35 g/ha,[9],0 to 29%
same,pest or weed control at 70 g/ha,[9],30 to 44%
same,pest or weed control at 17.5 g/ha,[10],0 to 29%
same,pest or weed control at 35 g/ha,[10],0 to 29%
same,pest or weed control at 70 g/ha,[10],0 to 29%
same,pest or weed control at 17.5 g/ha,[11],95 to 100%
same,pest or weed control at 35 g/ha,[11],95 to 100%
same,pest or weed control at 70 g/ha,[11],95 to 100%
same,pest or weed control at 17.5 g/ha,[12],75 to 84%
same,pest or weed control at 35 g/ha,[12],85 to 94%
same,pest or weed control at 70 g/ha,[12],95 to 100%
